Assay results from US20210244712A1, “METHODS FOR TREATING PATIENTS WITH CANCER HAVING DEFECTS IN CYCLIN D REGULATION” (NysnoBio Ireland DAC, priority 2018, published 2021).

Legend:
Type in all cases: cell-based
ES-2 = test: Senescence quantification (SA-βGal); settings: Compound 42 50, 100, or 150 nM, 96 hours, compared to control (DMSO)
Description: (§1) Senescence was quantified in ovarian cell lines A2780, OAW42, and ES-2. Cell lines A2780 has no cyclin D pathway mutations and has wt Rb and Parkin expression. Cell line OAW42 has increased CDK4 and increased CDK6 with wt Rb and Parkin expression. Cell line ES-2 has increased cyclin D and increased mutant […] with wt Rb and Parkin expression.
(§2) Day 1: 96 well plate was seeded with 4000 cells/well and incubated for 24 hours at 37° C.
(§3) Day 2: Compound 42 (50, 100, or 150 nM) or palbociclib (1 μM) as positive control were added to the wells and the plate was incubated for 96 hours at 37° C.
(§4) Day 6: Senescence cells histochemical Staining Kit (Sigma) was used. The growth medium form the cells were aspirated then washed twice with fresh […]. […] 100 μL filtered Fixation Buffer was added per well and the plate was incubated for 6-7 minutes at room temperature. Then, the cells were rinsed 3 times with PBS. 50 μL of the Staining Mixture was added per well and incubated at 37° C. overnight without CO2 (staining is pH dependent). After staining, the Staining Mixture was removed, PBS and Hoechst dye (1 μg/mL) were added. Ten images were taken with Epifluorescence Microscope using the blue filter and 10 images were taken in the brightfield. The images were used to count the total cell number—the positive blue cells were counted in the bright field. The percentage of cells expressing β-galactosidase was calculated.
(§5) Method 1: Mammalian β-Galactosidase Assay Kit (Thermo Scientific) was used. […] The cells were washed once with PBS. 100 μL of the β-Galactosidase Assay Reagent was added to each well and the plate was covered and incubated for 30 minutes at 37° C. without CO2. The absorbance was measured at 405 nm. If no change was observed, the plate was incubated for an extra 30 minutes.
(§6) Method 2: Assay of a portion of the lysate. The cells were washed once with PBS. 50 μL of the M-PER Reagent was added to each well and the plate was incubated at room temperature for […]. 25 μL of lysate was removed and use it for Protein Quantification (BCA). The date was normalize by protein content.

A2780 = test: Senescence quantification (SA-βGal); settings: Compound 42 50, 100, or 150 nM, 96 hours, compared to control (DMSO)
Description: as §1, §2, §3, §4, §5, §6

OAW42 = test: Senescence quantification (SA-βGal); settings: Compound 42 50, 100, or 150 nM, 96 hours, compared to control (DMSO)
Description: as §1, §2, §3, §4, §5, §6

SW626 = test: Cell proliferation assay; settings: Homo sapiens; Table 7a; Ovarian (SW626)
HCT-8 = test: Cell proliferation assay; settings: Homo sapiens, 72 hrs, read-out: Cell Viability: IC50
In short: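 Percentage inhibition relative to DMSO-treated cells was derived from acid phosphatase activity (405/620 nm). Cells had been plated overnight before 72 hrs of incubation with compound at several concentrations, tested in triplicate.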

| Structure (SMILES) | senescence (SA-βGal levels) (ES-2) | senescence (SA-βGal levels) (A2780) | senescence (SA-βGal levels) (OAW42) | EC50 (SW626) | IC50 (HCT-8) |
| --- | --- | --- | --- | --- | --- |
| Cc1ccccc1C(=O)Nc1nc(NC(=O)c2ccccc2C)n(-c2ccc(OC(F)(F)F)cc2)n1 [Compound 42, N,N′-(1-(4-(trifluoromethoxy)phenyl)-1H-1,2,4-triazole-3,5-diyl)bis(2-methylbenzamide)] | induced senescence | induced senescence | induced senescence | 0.334 µM | – |
| Cc1ccccc1C(=O)Nc1nc(NC(=O)c2ccccc2C)n(-c2ccccc2)n1 [Compound F, 2-methyl-N-[5-[(2-methylbenzoyl)amino]-1-phenyl-1,2,4-triazol-3-yl]benzamide] | – | – | – | – | 4.74 µM |
